Consider 3 compounds from patent US20210121437A1, “[…] AGENTS […] FLAVONOID DERIVATIVES TARGETING KINASES, SIRTUINS AND ONCOGENIC AGENTS FOR THE TREATMENT OF MULTIPLE MYELOMA, LYMPHOMA, AND […]” (priority 2015, published 2021).

SMILES strings stand for the structures. pIC50: −log10 of the molar value. A value given as a limit tells only on which side of the number the result lay.

The test system of one assay is Normal Bone marrow. Description: anticancer cell proliferation assay (WST-1). The settings on record: Table 4. The assay is classed as cell-based. The method, then:
(§1) Bioactivity of the above-described compounds has been verified by an anticancer cell proliferation assay using the WST-1 (4-[3-(4-iodophenyl)-2-(4-nitrophenyl)-2H-5-tetrazoliol-1, 3-benzene disulfonate) colorimetric assay by Roche Life Sciences®. Anticancer activity was tested against several standard cancer cell lines including brain, breast, Kaposi sarcoma, leukemia, lung, melanoma, tenosynovial giant cell tumor, ovarian, pancreatic, colon and prostate cancer. Cells were trypsinized and plated into 96 well plates in 50 μl of media and incubated overnight. The next day approximately 18 hours after plating, 50 μl of media containing the required flavonoid-based pharmaceutical composition was added per well. Cells were plated at a density so that 72 hours post drug addition, the cells will be in log phase (500-2000 cells/well). The compounds and extracts were solubilized in Dimethyl sulfoxide (DMSO). The cells are allowed to proliferate for 72 hours 37° C. in humidified atmosphere of 5% CO2. The experiment is terminated using WST-1 (Roche®) 10 μl per well and absorbance is read at 450 nm/690 nm. The effect of drugs on growth is assessed as percent of cell viability. The IC50 values were determined from the extract dose versus control growth curves using Graphpad Prism® software. All experiments were carried out in duplicate and the mean results determined.
On the technique in general: Formazan colour is commonly taken as a measure of viable cells.

The next assay deals with MV4-11 (Leukemia). The experiment in a line: anticancer cell proliferation assay (WST-1). Type of assay: cell-based. To be noted: Table 4; read-out: IC50 Acute Myeloid Leukemia cell lines MV4-11. The method, then:
as §1, with “Anticancer” for “Bioactivity of the above-described compounds has been verified by an anticancer cell proliferation assay using the WST-1 (4-[3-(4-iodophenyl)-2-(4-nitrophenyl)-2H-5-tetrazoliol-1, 3-benzene disulfonate) colorimetric assay by Roche Life Sciences®. Anticancer”

The subject of assay [1] is THP-1 Acute Myeloid Leukemia cell line. The experiment in a line: anticancer cell proliferation assay (WST-1). The assay is classed as cell-based. To be noted: Table 4; read-out: IC50 Acute Myeloid Leukemia cell lines THP-1. On the procedure: as §1, with “Anticancer” for “Bioactivity of the above-described compounds has been verified by an anticancer cell proliferation assay using the WST-1 (4-[3-(4-iodophenyl)-2-(4-nitrophenyl)-2H-5-tetrazoliol-1, 3-benzene disulfonate) colorimetric assay by Roche Life Sciences®. Anticancer”

In assay [2] the test system is MOLM-14 Acute Myeloid Leukemia cell line. The experiment in a line: anticancer cell proliferation assay (WST-1). Type of assay: cell-based. To be noted: Table 4; read-out: IC50 Acute Myeloid Leukemia cell lines MOLM-14. On the procedure:
as §1, with “Anticancer” for “Bioactivity of the above-described compounds has been verified by an anticancer cell proliferation assay using the WST-1 (4-[3-(4-iodophenyl)-2-(4-nitrophenyl)-2H-5-tetrazoliol-1, 3-benzene disulfonate) colorimetric assay by Roche Life Sciences®. Anticancer”

The next assay concerns the target SIRT-5 (Homo sapiens, UniProt Q9NXA8). Description: inhibition of sirtuins. Type of assay: biochemical. The text has this: Inhibition of Sirtuins, matrix metalloproteinase, bromodomains was also confirmed using standard protocols and the results are present in Table 2.
The test system of assay [3] is human pancreatic cancer xenograft CFPAC-1 cells. Description: human pancreatic cancer xenograft CFPAC-1 in scid mice. The assay is classed as in vivo. To be noted: CFPAC-1 xenograft. The text has this: The results of the anticancer activity are presented in Tables 3 and 4 (above) and in FIG. 6, Hela cells shown at (A) and CMK cells at (B) and MV4-11 and MOLT-14 acute myeloid leukemia cells.
For orientation: A xenograft is tissue or cells of one species grown in another, often human tumour cells in immunodeficient mice.

SIRT-5, sequence (Q9NXA8 37-310): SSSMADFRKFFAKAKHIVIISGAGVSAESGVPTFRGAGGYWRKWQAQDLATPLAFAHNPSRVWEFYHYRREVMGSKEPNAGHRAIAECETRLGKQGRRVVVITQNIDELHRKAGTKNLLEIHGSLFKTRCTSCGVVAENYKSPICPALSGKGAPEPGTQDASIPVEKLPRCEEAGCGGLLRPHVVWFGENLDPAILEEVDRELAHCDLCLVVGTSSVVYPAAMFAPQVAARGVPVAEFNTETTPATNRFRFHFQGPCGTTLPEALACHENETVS

Consider `COc1ccc(-c2cc(=O)c3c(O)cc(O)cc3o2)cc1O` [FBLGS-71], for which the pIC50 with Normal Bone marrow was below 4.00; with MV4-11 (Leukemia), 5.49; in assay [1] it was below 4.00; in assay [2], 5.43.

On to `COc1cc(-c2cc(=O)c3c(O)c(C/C=C(\C)CCC=C(C)C)c(O)cc3o2)ccc1O` [FBL-03A], for which the pIC50 against SIRT-5 was 3.91.

For `COc1cc(-c2cc(=O)c3c(O)c(CC=C(C)C)c(O)cc3o2)ccc1O` [FBL-03B], the “inhibition of tumor compared to the control” value in assay [3] was “significant inhibition of tumor”.

Broadly, the pIC50 is the IC50 on a negative log10 scale, so that one unit is a factor of ten.
